A word on the IC50: it is the point on the concentration scale where inhibition reaches its midpoint.

Structures are written as SMILES.

This assay deals with T1, TRPC4 (Homo sapiens, UniProt Q9UBN4).
T1 construct: expressed in transfected cells
T1 sequence (Q9UBN4 1-982 isoform Q9UBN4-5): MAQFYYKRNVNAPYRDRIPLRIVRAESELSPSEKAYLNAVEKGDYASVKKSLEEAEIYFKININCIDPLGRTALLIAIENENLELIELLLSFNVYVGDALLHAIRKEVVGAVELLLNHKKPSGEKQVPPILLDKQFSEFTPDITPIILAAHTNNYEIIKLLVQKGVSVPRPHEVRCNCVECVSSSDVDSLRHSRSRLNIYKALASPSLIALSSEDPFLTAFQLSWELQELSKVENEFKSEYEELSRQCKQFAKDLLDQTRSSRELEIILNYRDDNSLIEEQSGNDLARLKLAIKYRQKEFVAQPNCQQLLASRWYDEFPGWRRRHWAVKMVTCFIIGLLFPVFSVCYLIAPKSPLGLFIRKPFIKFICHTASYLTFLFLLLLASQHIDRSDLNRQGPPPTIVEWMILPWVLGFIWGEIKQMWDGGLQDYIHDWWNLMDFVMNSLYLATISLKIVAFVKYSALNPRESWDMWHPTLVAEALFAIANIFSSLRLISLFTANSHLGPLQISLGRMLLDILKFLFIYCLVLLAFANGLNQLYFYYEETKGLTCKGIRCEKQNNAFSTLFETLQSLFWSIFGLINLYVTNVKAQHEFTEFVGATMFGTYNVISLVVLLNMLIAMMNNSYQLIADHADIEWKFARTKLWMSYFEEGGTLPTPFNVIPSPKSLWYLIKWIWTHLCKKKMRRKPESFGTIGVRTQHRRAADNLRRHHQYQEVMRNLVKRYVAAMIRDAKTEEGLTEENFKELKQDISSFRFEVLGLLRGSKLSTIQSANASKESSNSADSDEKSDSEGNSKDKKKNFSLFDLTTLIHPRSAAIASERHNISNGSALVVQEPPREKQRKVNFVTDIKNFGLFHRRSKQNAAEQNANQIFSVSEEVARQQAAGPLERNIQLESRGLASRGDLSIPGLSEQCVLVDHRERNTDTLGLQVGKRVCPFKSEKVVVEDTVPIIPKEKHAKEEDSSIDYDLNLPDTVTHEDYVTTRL
Description: TRPC4 activity assay (FLIPR calcium fluorescence, Englerin A stimulation). Format: cell-based. As to conditions: HEK-TREx hTRPC4 cells, 100 nM Englerin A stimulation; read-out: TRPC4 (IC50 class). The procedure:
ICLN-1694 cells (HEK-TREx hTRPC4) expressing TRPC4 were generated as follows. Commercially available HekTrex-293 cells were seeded at 0.7×10^6 cells/well in a 1×6-well plate 24 hrs prior to transfection using 2 mL cell growth media containing no antibiotics (1× DMEM/high glucose (Hyclone #SH30022.02); 10%0/fetal bovine serum (Sigma) 2 mM sodium pyruvate, 10 mM HEPES). […] On day 2, 2 μg of plasmid DNA plus 6 μl of Xtreme-GENE HP reagent in Optimem (200 μl total volume) was prepared and incubated for 15 min at room temperature. This plasmid solution was then gently overlayed dropwise onto each well and the plate was gently swirled to mix complex with the media for approximately 30 seconds. Transfected cells were incubated at 37° C. in a 10% C02 incubator for 24 hrs. The transfected cells were harvested and transferred into 2×150 mm dishes containing cell growth media with no antibiotics at 37° C.
The next day selection was initiated to generate a stable pool by adding cell growth media containing 150 μg/mL Hygromycin and 5 μg/mL Blasticidin and cells were allowed to grow. Media with the selection agent was changed every 1-2 days as needed to remove dead cells. After 7 days, the hygromycin concentration was reduced to 75 μg/mL and cells growth was allowed to continue.
Single clones were selected as follows. The stable pool was diluted to 10 cells/mL and seeded (100 μl/well) into 24×96 well plates (˜1 cell/well) and allowed to grow for 7 days in cell growth media. Fresh media (100 μl) was added and the cells allowed to grow for another 1-2 weeks and then stored frozen or used immediately.
10-point dose response curves were generated using the Echo-550 acoustic dispenser. Compound source plates were made by serially diluting compound stocks to create 10 mM, 1 mM, and 0.1 mM solutions in DMSO into Echo-certified LDV plates. The Echo then serially spotted 100% DMSO stock solutions into source dose response plates to generate a 4-fold dilution scheme. 100% DMSO was added to the spotted dose response plates to bring the final volume to 5 μl. […] of the dose response stock plate was then spotted into pre-incubation and stimulation assay plates. 50 μl of pre-incubation buffer and 100 μl of stimulation buffer was then added to the plates resulting in a final assay test concentration range of 30 μM to 0.0001 μM with a final DMSO concentration of 0.3%.
ICLN-1694 cells (HEK-TREx hTRPC4) were plated onto 384 well, black pdl-coated microplates and maintained in cell growth media supplemented with 1 μg/mL tetracycline the day prior to use for experiments. TRPC4 expression was induced by the application of 1 μg/mL tetracycline at the time of plating. […] Cells were incubated at room temperature, protected from light, for 60-90 minutes. After the incubation period, the dye was removed and replaced with 10 μl of EBSS. Cell, pre-incubation and stimulation plates were loaded onto the FLIPR-II and the assay was initiated. The FLIPR measured a 10 second baseline and then added 10 μl of 2X compounds (or controls). Changes in fluorescence were monitored for an additional 5 minutes. After a 5 minute pre-incubation, 20 μl of 2X Englerin A (with 1X compound or controls) was added to the cell plate. The final Englerin A stimulation concentration in the assay was 100 nM. After the Englerin A addition, changes in fluorescence were monitored for an additional 5 minutes.
Compound modulation of TRPC4 calcium response was determined as follows. After the Englerin A, fluorescence was monitored for a 5-minute period. The maximum relative fluorescence response (minus the control response of 1 μM of an internal control compound known to maximally block TRPC4 calcium response, the “REF INHIB” in the formula below) was captured and exported from the FLIPR.
Compound effect is calculated as % inhibition using the following formula:
[formula] wherein “RFU” is the relative fluorescent units.

For `CCc1c(F)cccc1Oc1ncnc2c1CCN(c1cn[nH]c(=O)c1Cl)C2` [Compound 109, 4-Chloro-5-[4-(2-ethyl-3-fluorophenoxy)-5H,6H,7H,8H-pyrido[3,4-d]pyrimidin-7-yl]-2,3-dihydropyridazin-3-one], the half-inhibitory concentration (IC50) fell in the range of 50 to 500 nM.

As for `O=c1[nH]ncc(N2CCc3c(ncnc3Oc3ccccc3Cl)C2)c1Cl` [Compound 101], the IC50 was less than 50 nM.

As for `O=c1[nH]ncc(N2CCc3c(ccnc3Oc3ccc(F)cc3C(F)(F)F)C2)c1Cl` [Compound 120, 4-chloro-5-[5-[4-fluoro-2-(trifluoromethyl)phenoxy]-1,2,3,4-tetrahydro-2,6-naphthyridin-2-yl]-2,3-dihydropyridazin-3-one], the 50% inhibitory concentration (IC50) was less than 50 nM.

For `C[C@@H](O)c1nc2c(c(Oc3ccc(F)cc3Cl)n1)CCN(c1cn[nH]c(=O)c1Cl)C2` [Compound 119], the IC50 was less than 50 nM.

As to `C[C@@H]1c2ncnc(Oc3ccc(F)cc3Cl)c2CCN1c1cn[nH]c(=O)c1Cl` [Compound 118, 4-chloro-5-[(8R)-4-(2-chloro-4-fluorophenoxy)-8-methyl-5H,6H,7H,8H-pyrido[3,4-d]pyrimidin-7-yl]-2,3-dihydropyridazin-3-one], the IC50 was 50 to 500 nM.

For the compound `O=c1[nH]ncc(N2CCc3c(nc(CO)nc3Oc3ccc(F)cc3Cl)C2)c1Cl` [Compound 114], the IC50 was less than 50 nM.

Turning to `Nc1nc2c(c(Oc3ccc(F)cc3C(F)(F)F)n1)CCN(c1cn[nH]c(=O)c1Cl)C2` [Compound 116], the IC50 was less than 50 nM.

On to `N#Cc1cccc(Oc2ncnc3c2CCN(c2cn[nH]c(=O)c2Cl)C3)c1Cl` [Compound 108, 2-Chloro-3-[[7-(5-chloro-6-oxo-1,6-dihydropyridazin-4-yl)-5H,6H,7H,8H-pyrido[3,4-d]pyrimidin-4-yl]oxy]benzonitrile], for which the half-inhibitory concentration (IC50) was in the range of 500 to 1000 nM.

Take `O=c1[nH]ncc(N2CCc3c(ncnc3Oc3ccc(F)cc3C(F)F)C2)c1Cl` [Compound 105]: the half-maximal inhibitory concentration (IC50) is less than 50 nM.

Consider `O=c1[nH]ncc(N2CCc3c(ncnc3Oc3cnccc3C(F)(F)F)C2)c1Cl` [Compound 107], for which the IC50 is 50 to 500 nM.

For the compound `O=c1[nH]ncc(N2CCc3c(ncnc3Oc3cc(F)ccc3C(F)(F)F)C2)c1Cl` [Compound 106], the concentration for half-maximal inhibition (IC50) lay within 50 to 500 nM.

Regarding `O=c1[nH]ncc(N2CCc3c(nc(NCCO)nc3Oc3ccccc3C(F)(F)F)C2)c1Cl` [Compound 115, 4-chloro-5-[2-[(2-hydroxyethyl)amino]-4-[2-(trifluoromethyl)phenoxy]-5H,6H,7H,8H-pyrido[3,4-d]pyrimidin-7-yl]-2,3-dihydropyridazin-3-one], the IC50 was 50 to 500 nM.

Consider `Nc1nc2c(c(Oc3ccccc3C(F)(F)F)n1)CCN(c1cn[nH]c(=O)c1Cl)C2` [Compound 102], for which the IC50 is less than 50 nM.

`Nc1nc2c(c(Oc3ccccc3Cl)n1)CCN(c1cn[nH]c(=O)c1Cl)C2` [Compound 113]: the IC50 fell in the range of 50 to 500 nM.

Take `Nc1nc2c(c(Oc3ccc(F)cc3Cl)n1)CCN(c1cn[nH]c(=O)c1Cl)C2` [Compound 112, 5-[2-amino-4-(2-chloro-4-fluorophenoxy)-5H,6H,7H,8H-pyrido[3,4-d]pyrimidin-7-yl]-4-chloro-2,3-dihydropyridazin-3-one]: the IC50 fell in the range of 50 to 500 nM.

With `COc1nc2c(c(Oc3ccccc3C(F)(F)F)n1)CCN(c1cn[nH]c(=O)c1Cl)C2` [Compound 110, 4-Chloro-5-[2-methoxy-4-[2-(trifluoromethyl)phenoxy]-5H,6H,7H,8H-pyrido[3,4-d]pyrimidin-7-yl]-2,3-dihydropyridazin-3-one], the half-maximal inhibitory concentration (IC50) is less than 50 nM.

On to `O=c1[nH]ncc(N2CCc3c(ncnc3Oc3ccccc3C(F)F)C2)c1Cl` [Compound 103, 4-Chloro-5-[4-[2-(difluoromethyl)phenoxy]-5H,6H,7H,8H-pyrido[3,4-d]pyrimidin-7-yl]-2,3-dihydropyridazin-3-one], for which the IC50 is less than 50 nM.
